Data as given in patent US7741529B1, “Transgenic animal model for catecholaminergic polymorphic ventricular tachycardia (CPVT) and use thereof” (priority 2006, dated 2010).
Marks after values point to notes of the source that are not given here.

Key:
Assay type in all cases: in vivo, mouse
[1] = system: RyR2^+/RyR^R4496C mice; assay: Epinephrine and caffeine arrhythmia induction after propranolol pretreatment (continuous ECG monitoring)
Procedure: Arrhythmias were defined as follows: non sustained ventricular tachycardia (VTns) was defined as a series of 4 to 10 consecutive repetitive ventricular ectopic beats (VEBs), sustained VT (VTsust) was defined as a run of >10 consecutive VEBs, ventricular fibrillation (VF) was defined as a VTsust degenerating into ventricular fibrillation leading to sudden death.
(§1) ECG radiotelemetry monitors (Data Sciences International) were implanted intraabdominally under general anaesthesia (Avertin […]). Body temperature was maintained at 37° C. by use of a thermally controlled heating pad (Harvard Apparatus). ECG was continuously monitored starting 48 h after surgery. After 72 hours of recovery from surgery phenotype characterization was performed.
(§2) One group (Group 1) of animals exercised on a treadmill until exhaustion. The animals were then injected with epinephrine 2 mg/kg i.p. (WT n=12, RyR2^+/RyR^R4496C n=14). A second group of animals (Group 2) was injected with epinephrine (2 mg/kg ip) and caffeine (120 mg/kg i.p.) (WT, n=8, RyR2^+/RyR^R4496C, n=7). ECG monitoring was performed continuously during both exercise and drug testing protocols. Five additional RyR2^+/RyR^R4496C animals were treated for 24 hours with propranolol i.p. (2 mg/Kg) every 12 hours before being exposed to the epinephrine and caffeine protocol.
Among the RyR2^+/RyR^R4496C mice 4/8 or 50% developed sustained arrhythmias (VTsust n=2; FIG. 4 panel B and VF n=2; FIG. 5 panel B p=0.02 versus WT; Table I).
(§3) Five RyR2^+/RyR^R4496C mice were treated with propranolol to evaluate if antiadrenergic compounds could prevent induction of arrhythmias. After drug administration we observed a prolongation of RR interval from 94.5±13 to 118±13 msec […] (p<0.001). […] Despite pretreatment with betablockers, the administration of caffeine and epinephrine elicited VTsust in 2 and VF in 2 (sustained arrhythmias in 4 mice); only one mouse had no arrhythmias (p=0.56; i.e. non significant versus RyR2+/RyR^R4496C mice).

[2] = system: WT mice; assay: ECG radiotelemetry: effect of betablockers on RR interval in WT mice
[3] = system: RyR2^+/RyR^R4496C mice; assay: ECG radiotelemetry: effect of propranolol on RR and QT interval in RyR2+/RyRR4496C mice
Procedure: The cardiac activity in transgenic animals is preferably measured by continuous ECG monitoring. ECG radiotelemetry monitors (Data Sciences International) are typically implanted intraabdominally under general anaesthesia. After recovery from surgery the electrocardiographic signal is recorded continuously in conscious animal kept in special cages provided with receivers and connected to a A/D converted an a PC for data storage. Off-line analyses of stored ECGs parameters comprise: quantification of arrhythmias, heart rate trends, heart rate variability assessment (power spectrum analysis), QT interval and T wave assessments. Other parameters of cardiac functionality measurable by ECG are the following: baseline QT interval (measured using the tangent method^23), RR interval, RR variability.
as §1, §2, §3

[4] = 5 pretreated mice, epinephrine 2 mg/kg i.p. and caffeine 120 mg/kg i.p.
[5] = Group 2, N=5, epinephrine and caffeine i.p.

Question: For `CC(C)NCC(O)COc1cccc2ccccc12` (stereo not shown) [propranolol], which “number of mice with VF” value [1, 4] is on record?
Answer: 2

Question: And the “number of mice with VTsust” value [1, 4]?
Answer: 2

Question: What about the “number of mice with no arrhythmias” value ([1]; 5 pretreated mice, epinephrine and caffeine) of the same compound?
Answer: one

Question: And the “sustained arrhythmias (number of mice)” value ([1]; 5 pretreated mice, epinephrine and caffeine, p=0.56 versus untreated RyR2+/RyR^R4496C mice)?
Answer: 4 mice

Question: What about the “All VT/VF (sum of animals experiencing VTns or VTsust or VF)” value [1, 5] of the same compound?
Answer: 4

Question: And the “VTns (number of animals)” value [1, 5]?
Answer: 0

Question: And the “VTsust & VF (number of animals)” value [1, 5]?
Answer: 4

Question: What about the “prevention of arrhythmias (in words)” value ([1]; RyR2^+/RyR^R4496C mice) of the same compound?
Answer: not effective in preventing arrhythmias

Question: And the “percentage of RR change after betablockers (Δ%=ΔRR*100/RR baseline)” value ([2]; WT mice)?
Answer: 27±5%

Question: What about the “mean prolongation of RR interval” value ([2]; WT mice after betablockers) of the same compound?
Answer: 22.92 ± 3.6 ms

Question: What about the “Baseline RR” value ([3]; Group 2, N=5, beta blockade, p=0.0001 vs untreated RyR2^+/RyR^R4496C) of the same compound?
Answer: 121 + 23*

Question: What about the “Baseline QT” value ([3]; Group 2, N=5, beta blockade, tangent method, ANOVA P=0.966) of the same compound?
Answer: 23 + 0.2§

Question: And the “RR interval (in words)” value ([3]; RyR2^+/RyR^R4496C animals pretreated with betablockers, Group 2)?
Answer: significantly prolonged

Question: And the “mean prolongation of RR interval” value ([3]; RyR2^+/RyR^R4496C mice after betablockers, p=0.69 vs WT)?
Answer: 23.62 ± 0.14 ms

Question: What about the “percentage of RR change after betablockers (Δ%=ΔRR*100/RR baseline)” value ([3]; RyR2^+/RyR^R4496C mice, p=0.52 vs WT) of the same compound?
Answer: 25±3%

Question: What about the “RR interval after drug administration” value ([3]; five RyR2^+/RyR^R4496C mice, propranolol i.p. 2 mg/Kg every 12 hours for 24 hours, prolongation from 94.5±13, p<0.001) of the same compound?
Answer: 118 ± 13 ms
